Assay results: patent publication US6203822A, “Gallium-containing compounds for the treatment of infections caused by intracellular pathogens and pathogens causing chronic pulmonary infection” (priority 1996, dated 2001)

Legend:
[1] = system: M. tuberculosis strain H37Ra in human macrophages; experiment: Growth inhibition of M. tuberculosis H37Ra in human monocyte derived macrophages (MDM); type: cell-based
Method: Monocyte derived macrophages (MDM) containing strain H37Ra were incubated for 24 h (FIG. 2A), 48 h (FIG. 2B) or 72 h (FIG. 2C) and macrophages containing the virulent strain Erdman were incubated for 24 h (FIG. 2D) or 48 h (FIG. 2E) in gallium nitrate.
The gallium-containing compounds can also be tested for their ability to inhibit intracellular pathogens in tissue culture assays. In general, in these assays, the macrophages are placed in culture and incubated with the intracellular pathogen at an approximate cell to pathogen ratio of preferably at least 1:1 to about 1:5 cells:pathogen. Exemplary culture conditions are provided in the assays detailed in the Examples. For assays assessing M. tuberculosis infection, freshly adherent monocytes, 12 day-old adherent MDMs, or freshly adherent alveolar macrophages are incubated with M. tuberculosis, MAI or other intracellular bacteria at a ratio of about 1:1 to about 1:5 (phagocyte:bacterium). For M. tuberculosis or MAI, the bacteria are incubated with the phagocyte for 2 hr at 37° C. in RPMI/HEPES media with 2.5% serum or human serum albumin (serum-free). The cells are washed to remove non-adherent bacteria and monolayers are replated with RPMI containing 1% autologous serum (to maintain phagocyte viability but not to sustain extracellular growth of bacteria). Gallium-containing compounds, such as gallium nitrate, with, or without, other agents such as antibiotics, cytokines etc., are added about 24 hr. later and mycobacterial growth in cell lysates is then assessed over the next several days either by the radiometric BACTEC system or by colony-forming units on agarose plates. In each experiment, growth is assessed relative to control monolayers where no drug has been added.
Mononuclear phagocytes from healthy adult volunteers who were tuberculin skin test negative and had no history of mycobacterial infection were isolated and cultured in Teflon wells according to the methods of Schlesinger, et al. (J. Immunol. 150:2920-2930, 1993). […]

[2] = system: macrophage monolayers (MDMs); experiment: Gallium toxicity in uninfected MDM monolayers; type: cell-based, human; details: naphthol blue stained nuclei count, read-out: gallium concentration up to which no immediate difference in monolayer density
Method: To test the potential toxicity of gallium nitrate on the standard macrophage monolayers (MDMs) used in the assays described in this invention, uninfected MDM monolayers were incubated with various concentrations of gallium nitrate in the range used in the studies described in Examples 2 and 3.
There was no immediate difference in monolayer density between MDM monolayers with and without gallium nitrate treatment up to a gallium concentration of 2 mM. Results were based on counting napthol blue macrophage stained nuclei from the monolayer. These numbers directly correlate with the number of cells present. In most cases the integrity of the MDM monolayer in the presence of gallium was maintained for up to 37 days, equivalent to untreated, uninfected control cultures.

[3] = system: M. avium-intracellulare complex (MAI), patient isolate; experiment: Growth inhibition of MAI (patient isolate) in human alveolar macrophages; type: cell-based; details: 500 μM, 24 hr and 48 hr
Method: M. avium-intracellulare complex (MAI) was obtained from the ATCC (#25291) and from a patient isolate from the State Hygienic laboratory at the University of Iowa Hospital and Clinics. Human alveolar macrophages were obtained from broncholavage of healthy patients and placed in monolayer culture. The bacteria were added to the cells in a bacteria to macrophage ratio of about 1:1. Growth index readings were obtained at 24 hr and 48 hr after gallium nitrate administration (500 μM) as described in Example 3 and used by Cavalieri, et al. (Antimicrob. Agents and Chemo. 39:1542-1545,1995).

[4] = system: Leishmania chagasi promastigotes; experiment: Inhibition of Leishmania chagasi promastigote growth; type: cell-based
Method: Visceral leishmaniasis, the most serious form of human disease cause by Leishmania species, is fatal if untreated. Currently available treatment regimes suffer from both suboptimal efficacy and considerable toxicity. […] Leishmania chagasi, the cause of visceral leishmaniasis requires iron for growth and can obtain that iron from human transferrin, lactoferrin and hemin. When incubated in an in vitro culture system (using the culture methods of Wilson et al. Infect. Immun. 62:3262-3269, 1994), L. chagasi promastigotes were inhibited by the presence of gallium nitrate in a concentration dependent manner with inhibition observed at about at least 500 μM and higher (see Example 14 and FIG. 9).
Amastigotes were isolated from the spleens of infected hamsters and allowed to convert to promastigotes by cultivation in a modified minimal essential medium (HOMEM) with 10% heat inactivated fetal calf serum and hemin (8 μM). Parasites were used within 21 days of isolation from an infected hamster. Promastigote cultures were seeded at 10^6 promastigotes per ml and used after 2 to 3 days in logarithmic phase or 5 to 7 days in stationary phase of growth. During growth studies with gallium nitrate, promastigotes were suspended in iron-containing HOMEM to allow for organism growth. […]

[5] = system: infected and uninfected cells; details: read-out: concentration not toxic in vitro
[6] = cited from earlier work

For `O=[N+]([O-])[O-].O=[N+]([O-])[O-].O=[N+]([O-])[O-].[Ga+3]` [gallium nitrate], the “inhibition of growth versus 24 h” value ([1]; 48 and 72 h) was “More marked inhibition of growth”, the inhibition of growth ([1]; 24 h) was “Inhibition of growth was observed” and the inhibition of growth ([1]; about 1 to about 1000 μM) was “dose-dependent inhibition of growth”. For the same compound, the MNTC [2] was no less than 2 mM, the “growth inhibition of MAI” value [3] was “inhibits the growth of MAI” and the “growth inhibition of MAI” value ([3]; listed as Gallium nitrate) was “significant inhibition of MAI growth”. The “concentration at which inhibition was observed” value ([4]; L. chagasi promastigotes) was “at least 500 μM”, the “inhibition of promastigote growth” value ([4]; about 250 μM to about 2 mM, about 24 to about 120 hrs) was “significantly inhibited” and the MNTC [5] was 1 mM. For the same compound, the “dose that is non-toxic in vivo” value ([6]; in vivo) was “at least 200 mg/m^2 /day”, the “plasma concentration that is non-toxic in vivo” value ([6]; in vivo) was “greater than 1.2 mg/L” and the tolerated dose ([6]; intravenous, at least 7 days (Todd et al.)) was “at least 200 mg/m^2 /day”. The “safe dose in cancer patient therapy” value ([6]; literature, cancer patients) was “at least 200 mg/m^2 /day” and the tolerability ([6]; patients with cancer-related hypercalcemia) was “well tolerated, producing few clinically relevant adverse effects”.
